Measurements: patent US20240376121A1, “COMPOUNDS AND USES THEREOF” (Foghorn Therapeutics Inc., priority 2021, published 2024)

What was measured:
HiBit-BRM fusion protein = molecular target: T1, HiBit-BRM fusion protein (Homo sapiens, UniProt P51531); assay: HiBiT-BRM cell-based degradation assay (Nano-Glo HiBiT Lytic Detection); conditions: stable HeLa cell line expressing HiBiT-BRM, 24 h incubation; for BRM HiBit Degradation Maximum (%): top dose 30 μM; for DC50: read-out: BRM HiBit Degradation IC50
T1 construct: expressed in transfected cells
T1 sequence (P51531 whole entry, the tested form may be a part): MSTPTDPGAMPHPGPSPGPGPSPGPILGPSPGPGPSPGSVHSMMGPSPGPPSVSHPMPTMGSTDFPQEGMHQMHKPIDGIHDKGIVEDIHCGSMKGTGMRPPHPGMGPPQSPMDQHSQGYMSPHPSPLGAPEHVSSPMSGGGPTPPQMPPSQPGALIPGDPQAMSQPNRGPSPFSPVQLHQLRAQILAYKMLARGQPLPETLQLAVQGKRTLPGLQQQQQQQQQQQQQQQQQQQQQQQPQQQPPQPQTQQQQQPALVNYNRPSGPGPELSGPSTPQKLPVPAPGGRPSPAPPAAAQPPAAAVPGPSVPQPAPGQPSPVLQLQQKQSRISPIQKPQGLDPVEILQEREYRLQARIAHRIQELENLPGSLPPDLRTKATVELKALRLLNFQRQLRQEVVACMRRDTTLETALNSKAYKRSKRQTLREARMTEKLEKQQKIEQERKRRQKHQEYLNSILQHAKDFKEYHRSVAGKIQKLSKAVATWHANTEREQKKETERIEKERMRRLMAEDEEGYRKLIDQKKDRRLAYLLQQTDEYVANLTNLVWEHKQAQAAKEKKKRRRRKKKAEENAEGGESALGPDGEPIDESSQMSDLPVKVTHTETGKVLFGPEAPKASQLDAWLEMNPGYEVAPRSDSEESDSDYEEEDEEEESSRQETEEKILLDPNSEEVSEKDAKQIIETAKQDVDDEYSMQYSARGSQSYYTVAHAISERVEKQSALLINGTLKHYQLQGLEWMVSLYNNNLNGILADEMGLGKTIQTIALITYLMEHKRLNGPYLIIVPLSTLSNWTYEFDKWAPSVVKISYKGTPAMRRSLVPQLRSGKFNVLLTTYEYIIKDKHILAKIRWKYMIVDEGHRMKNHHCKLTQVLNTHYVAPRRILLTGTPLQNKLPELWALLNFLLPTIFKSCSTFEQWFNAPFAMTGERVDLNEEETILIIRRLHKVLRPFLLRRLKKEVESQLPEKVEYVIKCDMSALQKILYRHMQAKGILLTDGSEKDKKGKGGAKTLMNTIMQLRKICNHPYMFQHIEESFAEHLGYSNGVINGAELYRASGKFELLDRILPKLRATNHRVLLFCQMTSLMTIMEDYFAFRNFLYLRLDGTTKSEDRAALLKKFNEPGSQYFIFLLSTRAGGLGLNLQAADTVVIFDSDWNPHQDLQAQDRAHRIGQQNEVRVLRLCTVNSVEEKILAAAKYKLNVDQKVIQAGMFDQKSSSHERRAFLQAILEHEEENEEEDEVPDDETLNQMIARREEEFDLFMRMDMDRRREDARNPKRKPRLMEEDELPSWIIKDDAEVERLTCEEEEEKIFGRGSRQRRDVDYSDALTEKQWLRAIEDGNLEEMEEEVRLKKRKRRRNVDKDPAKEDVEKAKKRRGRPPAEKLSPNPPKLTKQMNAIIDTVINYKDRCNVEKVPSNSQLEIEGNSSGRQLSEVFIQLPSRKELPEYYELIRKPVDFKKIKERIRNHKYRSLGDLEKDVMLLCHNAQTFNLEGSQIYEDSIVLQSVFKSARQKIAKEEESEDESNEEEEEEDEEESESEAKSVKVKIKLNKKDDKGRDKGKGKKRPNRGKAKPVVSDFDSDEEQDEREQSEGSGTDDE
Outline: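 Residual HiBiT-BRM in a stable HeLa line was measured by Nano-Glo lytic luminescence after 24 h compound exposure (top final dose 30 μM, 3-fold, 10 points, duplicate). Values are % degradation, scaled between DMSO-treated cells and cells given 2 μM of a known BRM/BRG1 degrader.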

[1] = molecular target: T2, HiBit-BRG1 fusion protein (Homo sapiens, UniProt P51532); assay: HiBiT-BRG1 cell-based degradation assay (Nano-Glo HiBiT Lytic Detection); conditions: stable HeLa cell line expressing HiBit-BRG1 and LgBit, 24 h incubation; for Dmax: top dose 30 μM, read-out: BRG1 HiBit Degradation Maximum (%); for DC50: read-out: BRMG1 HiBit Degradation IC50
T2 construct: expressed in transfected cells
T2 sequence (P51532 whole entry, the tested form may be a part): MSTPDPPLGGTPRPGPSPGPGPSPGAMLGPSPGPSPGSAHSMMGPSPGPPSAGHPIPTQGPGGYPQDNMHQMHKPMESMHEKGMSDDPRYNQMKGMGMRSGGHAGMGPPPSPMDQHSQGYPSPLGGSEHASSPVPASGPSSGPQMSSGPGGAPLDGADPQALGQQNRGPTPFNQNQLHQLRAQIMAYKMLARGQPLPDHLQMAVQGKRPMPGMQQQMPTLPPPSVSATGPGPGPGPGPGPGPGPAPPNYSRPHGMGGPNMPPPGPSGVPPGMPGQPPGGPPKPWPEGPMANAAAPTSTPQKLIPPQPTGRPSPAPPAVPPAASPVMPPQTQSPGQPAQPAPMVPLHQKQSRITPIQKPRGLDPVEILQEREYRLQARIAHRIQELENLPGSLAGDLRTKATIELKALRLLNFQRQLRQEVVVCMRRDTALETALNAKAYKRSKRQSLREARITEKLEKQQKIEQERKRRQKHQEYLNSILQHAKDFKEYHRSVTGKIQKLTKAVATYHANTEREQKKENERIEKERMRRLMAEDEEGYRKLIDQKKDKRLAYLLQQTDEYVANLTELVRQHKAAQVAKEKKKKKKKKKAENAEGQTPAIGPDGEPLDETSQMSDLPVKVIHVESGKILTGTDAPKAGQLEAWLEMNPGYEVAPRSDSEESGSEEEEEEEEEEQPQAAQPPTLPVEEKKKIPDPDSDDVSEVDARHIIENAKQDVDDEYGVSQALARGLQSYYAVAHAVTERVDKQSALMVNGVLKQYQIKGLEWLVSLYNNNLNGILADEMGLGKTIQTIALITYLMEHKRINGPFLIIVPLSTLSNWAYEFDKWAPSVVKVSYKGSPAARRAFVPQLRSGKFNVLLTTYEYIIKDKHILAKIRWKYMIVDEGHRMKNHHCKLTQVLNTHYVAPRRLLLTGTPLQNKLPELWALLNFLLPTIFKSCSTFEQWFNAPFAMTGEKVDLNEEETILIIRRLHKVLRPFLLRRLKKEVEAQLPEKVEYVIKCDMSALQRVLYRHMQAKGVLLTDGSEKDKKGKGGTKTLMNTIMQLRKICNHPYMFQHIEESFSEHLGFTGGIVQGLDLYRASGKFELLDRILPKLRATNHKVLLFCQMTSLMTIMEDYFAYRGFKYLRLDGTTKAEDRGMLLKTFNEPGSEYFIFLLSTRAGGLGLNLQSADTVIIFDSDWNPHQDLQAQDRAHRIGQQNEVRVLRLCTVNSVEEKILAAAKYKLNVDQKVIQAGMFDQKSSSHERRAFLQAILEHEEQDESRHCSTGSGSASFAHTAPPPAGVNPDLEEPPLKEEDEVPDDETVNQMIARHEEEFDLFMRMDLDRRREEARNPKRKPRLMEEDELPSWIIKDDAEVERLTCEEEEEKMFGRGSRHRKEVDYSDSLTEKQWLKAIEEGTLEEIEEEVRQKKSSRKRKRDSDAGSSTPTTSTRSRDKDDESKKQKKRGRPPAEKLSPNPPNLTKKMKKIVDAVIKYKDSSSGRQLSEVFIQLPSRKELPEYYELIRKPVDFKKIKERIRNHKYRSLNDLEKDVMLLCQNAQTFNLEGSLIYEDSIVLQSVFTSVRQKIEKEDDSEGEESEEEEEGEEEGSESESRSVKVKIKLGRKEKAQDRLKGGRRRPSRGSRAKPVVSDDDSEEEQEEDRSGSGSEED
Outline: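 Degradation was scored from HiBiT lytic luminescence, scaled between DMSO-treated wells and wells given 2 μM of a standard BRM/BRG1 degrader. Cells were a stable HeLa HiBiT-BRG1/LgBiT line dosed for 24 h, ten concentrations in 3-fold steps from 30 μM, in duplicate.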

DC50 (HiBit-BRM fusion protein)	Dmax [1]	DC50 [1]	Compound	BRM HiBit Degradation Maximum (%) (HiBit-BRM fusion protein)
≥ 10 nM	< 50%	≥ 1000 nM	Cc1ncsc1-c1ccc([C@H](C)NC(=O)[C@@H]2C[C@@H](O)CN2C(=O)[C@@H](c2cc(OCCN3CCC(N4CCC(c5sc6nnc(-c7ccccc7O)cc6c5C)CC4)CC3)no2)C(C)C)cc1 [Compound 107, (2S,4R)-4-hydroxy-1-((R)-2-(3-(2-(4-(3-(2-hydroxyphenyl)-5-methylthieno[2,3-c]pyridazin-6-yl)-[1,4′-bipiperidin]-1′-yl)ethoxy)isoxazol-5-yl)-3-methylbutanoyl)-N-((S)-1-(4-(4-methylthiazol-5-yl)phenyl)ethyl)pyrrolidine-2-carboxamide]	A (“A” indicates maximum degradation ≥ 75%)
≥ 10 nM	< 50%	≥ 1000 nM	Cc1ncsc1-c1ccc([C@H](C)NC(=O)[C@@H]2C[C@@H](O)CN2C(=O)[C@@H](c2cc(N3CCC(CN4CC(c5sc6nnc(-c7ccccc7O)cc6c5C)C4)CC3)no2)C(C)C)cc1 [Compound 108, (2S,4R)-4-hydroxy-1-((R)-2-(3-(4-((3-(3-(2-hydroxyphenyl)-5-methylthieno[2,3-c]pyridazin-6-yl)azetidin-1-yl)methyl)piperidin-1-yl)isoxazol-5-yl)-3-methylbutanoyl)-N-((S)-1-(4-(4-methylthiazol-5-yl)phenyl)ethyl)pyrrolidine-2-carboxamide]	A (“A” indicates maximum degradation ≥ 75%)
≥ 1000 nM	< 50%	≥ 1000 nM	Cc1ncsc1-c1ccc([C@H](C)NC(=O)[C@@H]2C[C@@H](O)CN2C(=O)[C@@H](c2cc(OCCN3CCc4sc5nnc(-c6ccccc6O)cc5c4C3)no2)C(C)C)cc1 [Compound 109, (2S,4R)-4-hydroxy-1-((R)-2-(3-(2-(3-(2-hydroxyphenyl)-7,8-dihydropyrido[3′,4′:4,5]thieno[2,3-c]pyridazin-6(5H)-yl)ethoxy)isoxazol-5-yl)-3-methylbutanoyl)-N-((S)-1-(4-(4-methylthiazol-5-yl)phenyl)ethyl)pyrrolidine-2-carboxamide]	C (“C” indicates maximum degradation < 50%)
≥ 1000 nM	< 50%	≥ 1000 nM	Cc1ncsc1-c1ccc([C@H](C)NC(=O)[C@@H]2C[C@@H](O)CN2C(=O)[C@@H](c2cc(OCCN3CC(Cc4c(C)sc5nnc(-c6ccccc6O)cc45)C3)no2)C(C)C)cc1 [Compound 110, (2S,4R)-4-hydroxy-1-((R)-2-(3-(2-(3-((3-(2-hydroxyphenyl)-6-methylthieno[2,3-c]pyridazin-5-yl)methyl)azetidin-1-yl)ethoxy)isoxazol-5-yl)-3-methylbutanoyl)-N-((S)-1-(4-(4-methylthiazol-5-yl)phenyl)ethyl)pyrrolidine-2-carboxamide]	B (“B” indicates maximum degradation ≥ 50%)
≥ 1000 nM	< 50%	≥ 1000 nM	Cc1ncsc1-c1ccc([C@H](C)NC(=O)[C@@H]2C[C@@H](O)CN2C(=O)[C@@H](c2cc(OCCN3CC(Cc4csc5nnc(-c6ccccc6O)cc45)C3)no2)C(C)C)cc1 [Compound 111, (2S,4R)-4-hydroxy-1-((R)-2-(3-(2-(3-((3-(2-hydroxyphenyl)thieno[2,3-c]pyridazin-5-yl)methyl)azetidin-1-yl)ethoxy)isoxazol-5-yl)-3-methylbutanoyl)-N-((S)-1-(4-(4-methylthiazol-5-yl)phenyl)ethyl)pyrrolidine-2-carboxamide]	C (“C” indicates maximum degradation < 50%)
≥ 100 nM	< 50%	≥ 1000 nM	Cc1ncsc1-c1ccc([C@H](C)NC(=O)[C@@H]2C[C@@H](O)CN2C(=O)[C@@H](c2cc(N(C)CCN3CC(c4cc5nnc(-c6ccccc6O)cc5s4)C3)no2)C(C)C)cc1 [Compound 112, (2S,4R)-4-hydroxy-1-((R)-2-(3-((2-(3-(3-(2-hydroxyphenyl)thieno[3,2-c]pyridazin-6-yl)azetidin-1-yl)ethyl)(methyl)amino)isoxazol-5-yl)-3-methylbutanoyl)-N-((S)-1-(4-(4-methylthiazol-5-yl)phenyl)ethyl)pyrrolidine-2-carboxamide]	B (“B” indicates maximum degradation ≥ 50%)
< 10 nM	< 50%	≥ 1000 nM	Cc1ncsc1-c1ccc([C@H](C)NC(=O)[C@@H]2C[C@@H](O)CN2C(=O)[C@@H](c2cc(N3CCC(N4CC(c5sc6nnc(-c7ccccc7O)cc6c5C)C4)CC3)no2)C(C)C)cc1 [Compound 113, (2S,4R)-4-hydroxy-1-((R)-2-(3-(4-(3-(3-(2-hydroxyphenyl)-5-methylthieno[2,3-c]pyridazin-6-yl)azetidin-1-yl)piperidin-1-yl)isoxazol-5-yl)-3-methylbutanoyl)-N-((S)-1-(4-(4-methylthiazol-5-yl)phenyl)ethyl)pyrrolidine-2-carboxamide]	A (“A” indicates maximum degradation ≥ 75%)
